Measurements reported in article PMC6838110 (Nature Communications, 2019).

How the values were obtained:
Assay type in all cases: in vivo, mice
A549 xenografts = test: Pharmacodynamic biomarkers by immunohistochemistry after IR; settings: single dose AZD7648 100 mg kg−1, 1 h before IR 6 Gy
[1] = system: BT474 breast cancer xenografts; test: Xenograft efficacy study with liposomal doxorubicin; settings: AZD7648 37.5 mg kg−1 bid × 28 days, single agent
Description: (§1) Immunocompromised SCID (C.B-17/IcrHan®Hsd-Prkdc^scid) or Hsd:Athymic Nude-Foxn1^nu female mice (Envigo) were used for tumour implantation. […] When dosed twice daily, the time between the morning and evening doses was 8 h. Targeted irradiation of 2 Gy was delivered over 2 min daily over the first 5 days of treatment. Liposomal doxorubicin (Doxoves) was diluted in physiological saline and intravenously dosed at 2.5 or 5 mg kg^−1 once per week. Olaparib was formulated in 10% DMSO/30% Kleptose and orally dosed at 100 mg kg^−1 once daily. […] Statistical significance was evaluated using a one-tailed t-test. All in vivo studies complied with all relevant ethical regulations for animal testing and research, followed AstraZeneca’s global bioethics policy and received ethical approval from the AstraZeneca ethical committee. HBCx-17 PDX study was carried out at XenTech, France in accordance with French regulatory legislation concerning the protection of laboratory animals. CTG-703, CTG-0828 and CTG-0149 PDX studies were carried out at Champions Oncology, Inc., USA in accordance to the guidelines of the Institutional Animal Care and Use Committee (IACUC) of Champions Oncology and the USA regulatory legislation. […]
Tumours were measured (length x width) by bilateral Vernier calliper measurements and tumour volume calculated using Mousetrap software. […]

CTG-0149 H&N PDX = test: PDX efficacy study; settings: AZD7648 single agent
Description: as §1, with “legislation. CDX and OV2022 PDX studies were conducted in the UK in accordance with UK Home Office legislation, the Animal Scientific Procedures Act 1986 and the Home Office project licences 70/8839, 70/8894 and P0EC1FFDF.” for “legislation.”
(§2) SCID mice were surgically implanted subcutaneously with tumour fragments from donor mice. Tumours were measured (length x width) by bilateral Vernier calliper measurements and tumour volume calculated using Mousetrap software. Mice were randomized into […]
(§3) treatment groups when mean tumour volume reached ~0.2 cm 3. AZD7648 was formulated in 0.5% hydroxypropyl methylcellulose (HPMC)/0.1% Tween80 (HPMC/T) and orally dosed (4–100 mg/kg). When dosed twice daily (bid), the time between the morning and evening doses was 8 hours. Targeted irradiation of 2 Gy was delivered over 2 minutes daily over the first 5 days of treatment. Liposomal doxorubicin (Doxoves) was diluted in physiological saline and intravenously dosed at 2.5 or 5 mg/kg once per week. Olaparib was formulated in 10% DMSO/30% Kleptose and orally dosed at 100 mg/kg once daily.
(§4) HPMC/T. Tumour growth inhibition from start of treatment was assessed by co mparison of the mean change in tumour volume for the control and treated groups, using the Mousetrap application and represented as tumour growth inhibition (TGI). Statistical significance was evaluated using a one-tailed t-test. HBCx-17 PDX study was carried out at XenTech, France in accordance with French regulatory legislation concerning the protection of laboratory animals. CTG-703, CTG-0828 and CTG-0149 PDX studies were carried out at Champions Oncology, Inc., USA in accordance to the guidelines of the Institutional Animal Care and Use Committee (IACUC) of Champions Oncology and the USA regulatory legislation. CDX and OV2022 PDX studies were conducted in the UK in accordance with UK Home Office legislation, the Animal Scientific Procedures Act 1986, and AstraZeneca’s global bioethics policy. Experimental details are outlined in Home […]
(§5) Blood samples were taken via venipuncture of the tail vein. Whole blood was mixed 1: 5 with PBS and centrifuged at 1500g for 3 minutes at 4°C, and the plasma was extracted […]
(§6) was prepared using an appropriate dilution factor and compared against an 11-point standard calibration curve (1–10,000 nM) prepared in DMSO and spiked into bl ank plasma. Acetonitrile (100 µL) was added with the internal standard, followed by centrifugation at 3000 rpm for 10 minutes. Supernatant (50 µL) was then diluted in 300 µL water and analysed with ultra-performance liquid chromatography–tandem mass […]
(§7) Xenograft sample preparation
(§8) Animals were euthanized and tumour samples snap frozen in liquid nitrogen or fixed in formalin and paraffin embedded for subsequent analysis. Tumour pieces were lysed in […]

CTG-0828 NSCLC PDX = test: PDX efficacy study; settings: AZD7648 single agent
Description: as §1, with “legislation. CDX and OV2022 PDX studies were conducted in the UK in accordance with UK Home Office legislation, the Animal Scientific Procedures Act 1986 and the Home Office project licences 70/8839, 70/8894 and P0EC1FFDF.” for “legislation.”
as §2, §3, §4, §5, §6, §7, §8

CTG-703 ovarian PDX = test: PDX efficacy study; settings: AZD7648 single agent
Description: as §1, with “legislation. CDX and OV2022 PDX studies were conducted in the UK in accordance with UK Home Office legislation, the Animal Scientific Procedures Act 1986 and the Home Office project licences 70/8839, 70/8894 and P0EC1FFDF.” for “legislation.”
as §2, §3, §4, §5, §6, §7, §8

OV2022 ovarian PDX = test: PDX efficacy study; settings: AZD7648 single agent
Description: as §1, with “legislation. CDX and OV2022 PDX studies were conducted in the UK in accordance with UK Home Office legislation, the Animal Scientific Procedures Act 1986 and the Home Office project licences 70/8839, 70/8894 and P0EC1FFDF.” for “legislation.”
as §2, §3, §4, §5, §6, §7, §8

With Cc1cc2ncnn2cc1Nc1ncc2c(n1)n(C1CCOCC1)c(=O)n2C [AZD7648] the “IR-induced increases in pDNA-PKcs Ser2056 and γH2AX” value (A549 xenografts) was “abolished”, the TGI [1] was 20% and the TGI (CTG-0149 H&N PDX) was 60–80%. The TGI (CTG-0828 NSCLC PDX) was “too variable to assess the group effect”, the TGI (CTG-703 ovarian PDX) was 60–80% and the TGI (OV2022 ovarian PDX) was 60–80%.
